The target of assay [1] is T1, FAAH (Mus musculus (Mouse), UniProt O08914). Kind of assay: Mouse brain proteomes from inhibitor treated mice (oral gavage, sacrificed 4 h after administration, brain proteomes analyzed), FAAH. The assay is classed as in vivo. As to conditions: 5 mg/kg oral gavage, read-out: FAAH % inh. 5 mg/kg (mouse).
The target in assay [2] is MAGL (Homo sapiens (Human), UniProt Q99685). Description: In vitro competitive activity-based protein profiling (human prefrontal cortex membrane fractions, FP-Rh probe), MAGL band. As to conditions: human prefrontal cortex membrane fractions; for IC50: read-out: MAGL IC50 (μM) (human).
Assay [3] addresses FAAH (Homo sapiens (Human), UniProt O00519). Kind of assay: In vitro competitive activity-based protein profiling (human prefrontal cortex membrane fractions, FP-Rh probe), FAAH band. The following applies: human prefrontal cortex membrane fractions; for IC50: read-out: FAAH IC50 (μM) (human).
Protocol: (§1) Biological Evaluation In Vitro Competitive Activity-Based Protein Profiling.
(§2) Proteomes (mouse brain membrane fraction for mouse assays; human prefrontal cortex membrane fractions for human assays) (50 mL, 1.0 mg/mL total protein concentration) were preincubated with varying concentrations of inhibitors at 37° C. After 30 min, FP-Rh (1.0 mL, 50 mM in DMSO) was added and the mixture was incubated for another 30 min at 37° C. Reactions were quenched with SDS loading buffer (15 μL-4×) and run on SDS-PAGE.
Assay [4] deals with T2, MAGL (Mus musculus (Mouse), UniProt O35678). Description: In vitro competitive activity-based protein profiling (mouse brain membrane fraction, FP-Rh probe), MAGL band.
Protocol: as §1, §2
The target in assay [5] is T1, FAAH. Description: In vitro competitive activity-based protein profiling (mouse brain membrane fraction, FP-Rh probe), FAAH band.
Protocol: as §1, §2
Assay [6] addresses T1, FAAH. Description: Mouse brain proteomes from inhibitor treated mice (oral gavage, sacrificed 4 h after administration), FAAH. The assay is classed as in vivo. The following applies: 5 mg/kg oral gavage.
Assay [7] concerns the target T2, MAGL. Kind of assay: Mouse brain proteomes from inhibitor treated mice (oral gavage, sacrificed 4 h after administration, brain proteomes analyzed). The assay is classed as in vivo. As to conditions: 5 mg/kg oral gavage.

Results on 18 molecules are retold here after patent publication US10927105B1 (Lundbeck La Jolla Research Center, Inc., priority 2017, dated 2021).

T1 sequence (O08914 whole entry): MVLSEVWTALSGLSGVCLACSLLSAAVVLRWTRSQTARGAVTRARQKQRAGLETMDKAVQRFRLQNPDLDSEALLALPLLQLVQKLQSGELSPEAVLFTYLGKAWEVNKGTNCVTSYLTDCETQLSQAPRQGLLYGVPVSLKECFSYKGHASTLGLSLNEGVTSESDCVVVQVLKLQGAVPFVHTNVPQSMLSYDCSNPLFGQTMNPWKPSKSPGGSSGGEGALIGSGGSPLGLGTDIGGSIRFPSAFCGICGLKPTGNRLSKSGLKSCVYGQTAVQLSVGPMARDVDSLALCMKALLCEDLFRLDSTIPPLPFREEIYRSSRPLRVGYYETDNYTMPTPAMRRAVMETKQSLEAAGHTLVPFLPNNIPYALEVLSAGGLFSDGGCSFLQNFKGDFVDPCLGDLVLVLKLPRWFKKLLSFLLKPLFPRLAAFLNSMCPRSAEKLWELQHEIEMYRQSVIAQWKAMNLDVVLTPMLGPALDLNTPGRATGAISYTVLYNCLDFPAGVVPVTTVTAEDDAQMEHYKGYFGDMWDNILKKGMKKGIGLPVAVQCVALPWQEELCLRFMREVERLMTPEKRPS
Sequence of MAGL (Homo sapiens (Human), UniProt Q99685) (Q99685 whole entry): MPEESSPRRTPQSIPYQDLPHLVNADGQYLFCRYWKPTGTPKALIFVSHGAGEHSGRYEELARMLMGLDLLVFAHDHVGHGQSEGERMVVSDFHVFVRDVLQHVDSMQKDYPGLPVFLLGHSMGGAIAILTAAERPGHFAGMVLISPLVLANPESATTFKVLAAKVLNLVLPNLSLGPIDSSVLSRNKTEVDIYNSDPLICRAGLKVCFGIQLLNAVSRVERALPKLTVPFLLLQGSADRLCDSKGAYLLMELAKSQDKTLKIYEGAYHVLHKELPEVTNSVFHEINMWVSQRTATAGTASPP
Sequence of FAAH (Homo sapiens (Human), UniProt O00519) (O00519 whole entry): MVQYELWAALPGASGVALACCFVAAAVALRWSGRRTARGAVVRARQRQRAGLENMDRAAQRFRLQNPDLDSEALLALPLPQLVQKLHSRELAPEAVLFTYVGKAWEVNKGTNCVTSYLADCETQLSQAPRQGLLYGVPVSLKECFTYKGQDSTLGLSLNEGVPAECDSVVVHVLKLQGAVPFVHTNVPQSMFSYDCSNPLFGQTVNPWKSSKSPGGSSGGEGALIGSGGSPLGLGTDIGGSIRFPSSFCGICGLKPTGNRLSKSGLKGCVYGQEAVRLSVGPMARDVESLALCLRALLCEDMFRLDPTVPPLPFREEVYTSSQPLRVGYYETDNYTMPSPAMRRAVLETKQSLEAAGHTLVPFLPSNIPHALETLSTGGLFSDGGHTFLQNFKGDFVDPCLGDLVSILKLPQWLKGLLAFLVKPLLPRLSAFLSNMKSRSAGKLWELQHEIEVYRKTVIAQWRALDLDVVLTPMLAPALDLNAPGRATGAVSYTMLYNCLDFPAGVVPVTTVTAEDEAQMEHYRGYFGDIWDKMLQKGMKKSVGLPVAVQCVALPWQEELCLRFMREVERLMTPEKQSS
T2 sequence (O35678 whole entry): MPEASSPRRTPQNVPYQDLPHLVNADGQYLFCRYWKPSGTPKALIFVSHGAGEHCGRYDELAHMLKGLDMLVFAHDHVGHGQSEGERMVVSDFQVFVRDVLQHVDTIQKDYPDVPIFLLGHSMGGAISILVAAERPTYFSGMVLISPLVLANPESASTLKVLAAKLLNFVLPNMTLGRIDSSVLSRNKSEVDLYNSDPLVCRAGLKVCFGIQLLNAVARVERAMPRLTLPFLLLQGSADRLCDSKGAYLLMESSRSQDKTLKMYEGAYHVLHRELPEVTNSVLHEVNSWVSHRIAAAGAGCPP

In the case of `O=C(O)c1ccn(C(=O)N2CCC3(CCCN3C(=O)c3ccc(C(F)(F)F)cc3N3CCCC3)CC2)n1` [Example 403, 1-(1-(2-(pyrrolidin-1-yl)-4-(trifluoromethyl)-benzoyl)-1,8-diazaspiro[4.5]-decane-8-carbonyl)-1H-pyrazole-3-carboxylic acid], on FAAH [1], the inhibition at 5 mg/kg lay within 0 to 25%.

On to `O=C(O)c1ccn(C(=O)N2CCN(Cc3cc(F)cc(Oc4ccc(Cl)cc4)c3)CC2)n1` [Example 161, 1-(4-(3-(4-chlorophenoxy)-5-fluorobenzyl)-piperazine-1-carbonyl)-1H-pyrazole-3-carboxylic acid], for which the IC50 on MAGL [2] and at FAAH [3] was less than 0.1 µM in each case.

Take `NC(=O)c1ccn(C(=O)N2CCC3(CCN(Cc4cc(Cl)cc(C(F)(F)F)c4)C3)CC2)n1` [Example 196, 1-(2-(3-chloro-5-(trifluoromethyl)-benzyl)-2,8-diazaspiro[4.5]-decane-8-carbonyl)-1H-pyrazole-3-carboxamide]: the IC50 on MAGL [2] and on FAAH [3] was less than 0.1 µM in each case.

Take `O=C(O)c1ccn(C(=O)N2C[C@H]3C[C@H](OCc4ccc(Oc5ccc(Cl)cc5)cc4)C[C@H]3C2)n1` [Example 55, 1-(trans-5-((4-(4-chlorophenoxy)-benzyl)oxy)-octahydrocyclopenta-[c]pyrrole-2-carbonyl)-1H-pyrazole-3-carboxylic acid]: the half-maximal inhibitory concentration (IC50) at MAGL [2] and at FAAH [3] was less than 0.1 µM in each case.

For the molecule `CN(Cc1ccccc1Cl)[C@H]1C[C@@H]2CN(C(=O)n3ccc(C(N)=O)n3)C[C@@H]2C1` [Example 200, 1-(trans-5-((2-chlorobenzyl)-(methyl)amino)-octahydrocyclopenta-[c]pyrrole-2-carbonyl)-1H-pyrazole-3-carboxamide], the IC50 on MAGL [2] and on FAAH [3] was less than 0.1 µM each time.

Take `C#Cc1ccc(CN2CCN(C(=O)n3ccc(C(N)=O)n3)CC2)cc1` [Example 144, 1-(4-(4-ethynylbenzyl)-piperazine-1-carbonyl)-1H-pyrazole-3-carboxamide]: the concentration for half-maximal inhibition (IC50) at MAGL [2] and on FAAH [3] was less than 0.1 µM each time.

Turning to `O=C(O)c1ccn(C(=O)N2C[C@H]3C[C@H](OCc4cccc(Oc5ccc(Cl)cc5)c4)C[C@H]3C2)n1` [Example 158, 1-(trans-5-((3-(4-chlorophenoxy)-benzyl)oxy)-octahydrocyclopenta-[c]pyrrole-2-carbonyl)-1H-pyrazole-3-carboxylic acid], the half-inhibitory concentration (IC50) at MAGL [2] and at FAAH [3] was less than 0.1 µM each time.

In the case of `O=C(O)c1ccn(C(=O)N2CCC3(CCN(Cc4cccc(OC(F)(F)F)c4)C3)CC2)n1` [Example 153, 1-(2-(3-(trifluoromethoxy)-benzyl)-2,8-diazaspiro[4.5]-decane-8-carbonyl)-1H-pyrazole-3-carboxylic acid], the “MAGL % inh. 1 μM (mouse)” value on MAGL [4] is “A (% inhibition is greater than or equal to 75%)”. Also, the “MAGL % inh. 1 μM (human)” value on MAGL [2] is given as “A (% inhibition is greater than or equal to 75%)”. Also, the “FAAH % inh. 1 μM (human)” value at FAAH [3] was “D (% inhibition is greater than or equal to 0% and less than 25%)”. Further, the “FAAH % inh. 1 μM (mouse)” value at FAAH [5] is “C (% inhibition is greater than or equal to 25% and less than 50%)”.

For `O=C(O)c1nn(C(=O)N2CCN(Cc3cccc(Oc4ccc(Cl)cc4)c3)CC2)cc1Cl` [Example 132, 4-chloro-1-(4-(3-(4-chlorophenoxy)-benzyl)-piperazine-1-carbonyl)-1H-pyrazole-3-carboxylic acid], the 50% inhibitory concentration (IC50) on MAGL [2] and on FAAH [3] was less than 0.1 µM in each case.

Turning to `CN(Cc1cccc(C(F)(F)F)c1)C1CCN(C(=O)n2ccc(C(N)=O)n2)CC1` [Example 176, 1-(4-(methyl(3-(trifluoromethyl)-benzyl)amino)-piperidine-1-carbonyl)-1H-pyrazole-3-carboxamide], the IC50 at MAGL [2] and on FAAH [3] was less than 0.1 µM throughout.

`NC(=O)c1ccn(C(=O)N2CCN(Cc3ccc(C(F)(F)F)cc3N3CCCC3)CC2)n1` [Example 173, 1-(4-(2-(pyrrolidin-1-yl)-4-(trifluoromethyl)-benzyl)piperazine-1-carbonyl)-1H-pyrazole-3-carboxamide]: the IC50 on MAGL [2] and at FAAH [3] was less than 0.1 µM each time.

Turning to `O=C(O)c1ccn(C(=O)N2CCC3(CCCN3Cc3ccc(C(F)(F)F)cc3N3CCCCC3)CC2)n1` [Example 404, 1-(1-(2-(piperidin-1-yl)-4-(trifluoromethyl)-benzyl)-1,8-diazaspiro[4.5]-decane-8-carbonyl)-1H-pyrazole-3-carboxylic acid], the inhibition at 5 mg/kg at FAAH [1] was in the range of 0 to 25%.

Turning to `O=C(O)c1ccn(C(=O)N2CCC3(CCN(Cc4cc(F)cc(C(F)(F)F)c4)C3)CC2)n1` [Example 152, 1-(2-(3-fluoro-5-(trifluoromethyl)-benzyl)-2,8-diazaspiro[4.5]-decane-8-carbonyl)-1H-pyrazole-3-carboxylic acid], at MAGL [4], the “MAGL % inh. 1 μM (mouse)” value is “A (% inhibition is greater than or equal to 75%)”. Also, the “MAGL % inh. 1 μM (human)” value on MAGL [2] is “A (% inhibition is greater than or equal to 75%)”. Also, the “FAAH % inh. 1 μM (human)” value on FAAH [3] is “D (% inhibition is greater than or equal to 0% and less than 25%)”. Also, the “FAAH % inh. 1 μM (mouse)” value on FAAH [5] was “B (% inhibition is greater than or equal to 50% and less than 75%)”.

As to `NC(=O)c1ccn(C(=O)N2CCC3(CCN(Cc4cc(Cl)ccc4C(F)(F)F)C3)CC2)n1` [Example 99, 1-(2-(5-chloro-2-(trifluoromethyl)-benzyl)-2,8-diazaspiro[4.5]-decane-8-carbonyl)-1H-pyrazole-3-carboxamide], the IC50 at MAGL [2] and at FAAH [3] was less than 0.1 µM in each case.

As to `NC(=O)c1ccn(C(=O)N2CCC3(CCN(Cc4ccc(N5CCCC5)cc4C(F)(F)F)C3)CC2)n1` [Example 195, 1-(2-(4-(pyrrolidin-1-yl)-2-(trifluoromethyl)-benzyl)-2,8-diazaspiro[4.5]-decane-8-carbonyl)-1H-pyrazole-3-carboxamide], the IC50 on MAGL [2] and on FAAH [3] was less than 0.1 µM throughout.

For the molecule `NC(=O)c1ccn(C(=O)N2CC3CN(Cc4cc(Cl)ccc4Cl)CC3C2)n1` (stereo not drawn) [Example 202, 1-(5-(2,5-dichlorobenzyl)-octahydropyrrolo-[3,4-c]pyrrole-2-carbonyl)-1H-pyrazole-3-carboxamide], the IC50 on MAGL [2] and at FAAH [3] was less than 0.1 µM throughout.

Regarding `CN(Cc1ccccc1Cl)[C@H]1C[C@@H]2CN(C(=O)n3cc(Cl)c(C(N)=O)n3)C[C@@H]2C1` [Example 128, 4-chloro-1-(trans-5-((2-chlorobenzyl)-(methyl)amino)-octahydrocyclopenta-[c]pyrrole-2-carbonyl)-1H-pyrazole-3-carboxamide], the IC50 on MAGL [2] and on FAAH [3] was less than 0.1 µM in each case.

Turning to `O=C(O)c1ccn(C(=O)N2CCC3(CCCN3Cc3ccc(C(F)(F)F)cc3Cl)CC2)n1` [Example 76, 1-(1-(2-chloro-4-(trifluoromethyl)-benzyl)-1,8-diazaspiro[4.5]-decane-8-carbonyl)-1H-pyrazole-3-carboxylic acid], on FAAH [6], the “FAAH % inh. 5 mg/kg (mouse)” value is “D (% inhibition is greater than or equal to 0% and less than 25%)”. Moreover, the “MAGL % inh. 5 mg/kg (mouse)” value on MAGL [7] was “D (% inhibition is greater than or equal to 0% and less than 25%)”. For the same molecule, the “MAGL % inh. 1 μM (mouse)” value on MAGL [4] is reported as “A (% inhibition is greater than or equal to 75%)”. Further, on MAGL [2], the “MAGL % inh. 1 μM (human)” value is listed as “A (% inhibition is greater than or equal to 75%)”. Further, at FAAH [3], the “FAAH % inh. 1 μM (human)” value is “D (% inhibition is greater than or equal to 0% and less than 25%)”. In addition, the “FAAH % inh. 1 μM (mouse)” value on FAAH [5] was “D (% inhibition is greater than or equal to 0% and less than 25%)”.
